Laboratory results from ChEMBL document CHEMBL3885861, “Open TG-GATES”.

Organism: Rattus norvegicus
Test: Open TG-GATES - Regimen: Daily Repeat
Assay type: toxicity, organism-based, Sprague-Dawley
Set-up: regimen Daily Repeat, gender Male, age 6 weeks
Details: in vivo, po, 0 mg/kg, […], route gavage, dose level Control; for KIDNEY_L / KIDNEY_R / KIDNEY_TOTAL: tissue Kidney; for LIVER: tissue Liver; for A/G / ALP / ALT / AST / BUN / CRE / Ca / Cl / DBIL / GLC / IP / K / LDH / Na / PL / RALB / TBIL / TC / TG / TP / gamma-GTP: tissue Plasma

COc1ccc(Cc2nccc3cc(OC)c(OC)cc23)cc1OC [PAPAVERINE] showed a Lym (tissue Blood, time 28 day) of 77.8%, an MCH (tissue Blood, time 28 day) of 18.7 pg and an MCHC (tissue Blood, time 28 day) of 33%. It also gave an MCV (tissue Blood, time 28 day) of 56.6 fL, a Mono (tissue Blood, time 28 day) of 2% and a Neu (tissue Blood, time 28 day) of 17.8%. It also gave a PT (tissue Blood, time 28 day) of 16 s, a Plat (tissue Blood, time 28 day) of 101.3 x10_4/uL and an RBC (tissue Blood, time 28 day) of 775 x10_4/ul. The Ret (tissue Blood, time 28 day) was 3%, the WBC (tissue Blood, time 28 day) was 123.2 x10_2/uL and the KIDNEY_L (time 7 day) was 1.1 g. The KIDNEY_R (time 7 day) was 1.1 g, the KIDNEY_TOTAL (time 7 day) was 2.2 g and the KIDNEY_L (time 14 day) was 1.2 g. The KIDNEY_R (time 14 day) was 1.3 g, the KIDNEY_TOTAL (time 14 day) was 2.5 g and the KIDNEY_L (time 28 day) was 1.4 g. The KIDNEY_R (time 28 day) was 1.5 g, the KIDNEY_TOTAL (time 28 day) was 3 g and the LIVER (time 7 day) was 12.1 g. For the same molecule, the LIVER (time 14 day) was 14.2 g, the LIVER (time 28 day) was 16.8 g and the A/G (time 7 day) was 1.2. For the same molecule, the ALP (time 7 day) was 1358 IU/L, the ALT (time 7 day) was 47 IU/L and the AST (time 7 day) was 82.2 IU/L. It also gave a BUN (time 7 day) of 19.4 mg/dL, a CRE (time 7 day) of 0.2 mg/dL and a Ca (time 7 day) of 10.3 mg/dL. The Cl (time 7 day) was 107.2 meq/L, the DBIL (time 7 day) was 0 mg/dL and the GLC (time 7 day) was 203.2 mg/dL. It also gave an IP (time 7 day) of 6.7 mg/dL, a K (time 7 day) of 4.4 meq/L and an LDH (time 7 day) of 248.2 IU/L. The Na (time 7 day) was 140.4 meq/L, the PL (time 7 day) was 148.8 mg/dL and the RALB (time 7 day) was 3 g/dL. It also gave a TBIL (time 7 day) of 0 mg/dL, a TC (time 7 day) of 75 mg/dL and a TG (time 7 day) of 101.6 mg/dL. For the same molecule, the TP (time 7 day) was 5.5 g/dL, the gamma-GTP (time 7 day) was 2 IU/L and the A/G (time 14 day) was 1.1. It also gave an ALP (time 14 day) of 1381.4 IU/L, an ALT (time 14 day) of 42.2 IU/L and an AST (time 14 day) of 67 IU/L. It also gave a BUN (time 14 day) of 17.6 mg/dL, a CRE (time 14 day) of 0.2 mg/dL and a Ca (time 14 day) of 10.5 mg/dL. For the same molecule, the Cl (time 14 day) was 106.6 meq/L, the DBIL (time 14 day) was 0 mg/dL and the GLC (time 14 day) was 199.6 mg/dL. The IP (time 14 day) was 6.7 mg/dL, the K (time 14 day) was 4.4 meq/L and the LDH (time 14 day) was 164.6 IU/L. For the same molecule, the Na (time 14 day) was 142.8 meq/L, the PL (time 14 day) was 148.4 mg/dL and the RALB (time 14 day) was 3 g/dL. For the same molecule, the TBIL (time 14 day) was 0.016 mg/dL, the TC (time 14 day) was 78.4 mg/dL and the TG (time 14 day) was 119.2 mg/dL. It also gave a TP (time 14 day) of 5.7 g/dL, a gamma-GTP (time 14 day) of 2.4 IU/L and an A/G (time 28 day) of 1.1. It also gave an ALP (time 28 day) of 1231 IU/L, an ALT (time 28 day) of 44.4 IU/L and an AST (time 28 day) of 68.2 IU/L. The BUN (time 28 day) was 20 mg/dL, the CRE (time 28 day) was 0.2 mg/dL and the Ca (time 28 day) was 10.2 mg/dL. The Cl (time 28 day) was 105 meq/L, the DBIL (time 28 day) was 0 mg/dL and the GLC (time 28 day) was 211.4 mg/dL. The IP (time 28 day) was 6.2 mg/dL, the K (time 28 day) was 4.1 meq/L and the LDH (time 28 day) was 160.4 IU/L. For the same molecule, the Na (time 28 day) was 141.4 meq/L, the PL (time 28 day) was 147.4 mg/dL and the RALB (time 28 day) was 3.1 g/dL. The TBIL (time 28 day) was 0.008 mg/dL, the TC (time 28 day) was 73.6 mg/dL and the TG (time 28 day) was 132.6 mg/dL. The TP (time 28 day) was 5.8 g/dL and the gamma-GTP (time 28 day) was 3.2 IU/L.
